Data published in patent publication US20200268728A1, “DRUG TARGETING CANCER STEM CELL” (Sumitomo Dainippon Pharma Co., Ltd., priority 2016, published 2020).
Counter-ions that a name gives are not always drawn.

system: HCT116 cells; experiment: Combination with Example 24, inhibitory effect on sphere-forming ability (Test Example 6); format: cell-based, human; details: HCT116 sphere culture, test compound combined with Example 24 (2-1000 nmol/L), 4 days

Molecule	sCI, minimum (Ld)/(Lc)
CCN(CC)CCNC(=O)c1c(C)[nH]c(/C=C2\C(=O)Nc3ccc(-c4csc(-c5ccccc5)n4)cc32)c1C [Amcasertib]	0.017
CC(C)c1c(C(=O)Nc2ccccc2)c(-c2ccccc2)c(-c2ccc(F)cc2)n1CC[C@@H](O)C[C@@H](O)CC(=O)O [Atorvastatin]	0.3
CC[C@@H]1C(=O)N(C)c2cnc(Nc3ccc(C(=O)NC4CCN(C)CC4)cc3OC)nc2N1C1CCCC1 [BI 2536]	0.623
Cc1nc(Nc2ncc(C(=O)Nc3c(C)cccc3Cl)s2)cc(N2CCN(CCO)CC2)n1 [Dasatinib]	0.171
CCCCCCCCc1ccc(CCC(N)(CO)CO)cc1 [Fingolimod]	0.013
CC(C)n1c(/C=C/C(O)CC(O)CC(=O)O)c(-c2ccc(F)cc2)c2ccccc21 (centres unmarked) [Fluvastatin]	0.163
CS(=O)(=O)CCNCc1ccc(-c2ccc3ncnc(Nc4ccc(OCc5cccc(F)c5)c(Cl)c4)c3c2)o1 [Lapatinib]	0.024
CC[C@H](C)C(=O)O[C@H]1C[C@@H](C)C=C2C=C[C@H](C)[C@H](CC[C@@H]3C[C@@H](O)CC(=O)O3)[C@H]21 [Lovastatin]	0.150
CC(=O)c1cc2c(o1)C(=O)c1ccccc1C2=O [Napabucasin]	0.159
COC1=CC(c2cc3ccccc3[nH]2)=N/C1=C\c1[nH]c(C)cc1C [Obatoclax]	0.103
CC[C@H](C)C(=O)O[C@H]1C[C@H](O)C=C2C=C[C@H](C)[C@H](CC[C@@H](O)C[C@@H](O)CC(=O)O)[C@H]21 [Pravastatin]	0.810
CN1CCC(CNc2ccc3ncc(-c4cccc(OC(F)(F)F)c4)n3n2)CC1 [SGI-1776]	0.026
O=C(Nc1ccccc1-c1cn2c(CN3CCNCC3)csc2n1)c1cnc2ccccc2n1 [SRT1720]	0.007
CCC(C)(C)C(=O)O[C@H]1C[C@@H](C)C=C2C=C[C@H](C)[C@H](CC[C@@H]3C[C@@H](O)CC(=O)O3)[C@H]21 [Simvastatin]	0.257
CC/C(=C(\c1ccccc1)c1ccc(OCCN(C)C)cc1)c1ccccc1 [Tamoxifen]	0.046
CN(C)CCOc1ccc(/C(=C(/CCCl)c2ccccc2)c2ccccc2)cc1 [Toremifene]	0.020
Raloxifen	0.010

system: HCT-116 cells; experiment: Test for inhibiting sphere-forming ability of cancer cells (Test Example 1); format: cell-based, human; details: Homo sapiens, 96 h, non-adherent serum-free sphere culture, 4 days, CellTiter-Glo, read-out: IC50 (μmol/L), Sphere IC50 value, concentration for 50% inhibition of cell proliferation
Protocol: The reliable methods established for measuring the self-renewal ability of cells which is one of the CSC's properties include a method for measuring the sphere-forming ability of cancer cells in non-adherent condition in the absence of serum (Cancer Res 65, 5506-5511 (2005)). HCT-116 cells were available from the American Type Culture Collection (ATCC). HCT-116 cells were cultured at 37° C. and 5% CO2 using the McCoy's 5a medium containing 10% fetal bovine serum (FBS), 100 U/ml penicillin, and 100 μg/ml streptomycin. HCT-116 cells were seeded in a 384 Well Black Clear Bottom Ultra-Low Attachment Microplate (Corning Cat. No. 3827) in an amount of 350-800 cells/well using the DMEM/F12 medium containing 2% B27 supplement (GIBCO), 20 ng/mL epidermal growth factor (EGF) (peprotech), 10 ng/mL basic fibroblast growth factor (bFGF) (peprotech), 5 μg/mL insulin (Sigma), and 1% penicillin/streptomycin. The test compounds were added into each well to adjust the final concentration of DMSO to 0.1%, and the cells were cultured for 4 days. The number of viable cells in each well was then measured with CellTiter-Glo® Luminescent Cell Viability Assay (Promega) to calculate the concentration of each test compound for 50% inhibition of cell proliferation (Sphere IC50 value; μmol/L).
The experiment of Test Example 1 was performed for the compounds of each Example.

IC50 [µmol/L]	Molecule
0.03	O=C(Nc1cn(Cc2cccc(C(F)(F)F)c2)cn1)c1ccc(CO)cn1 [Example 15, 5-(Hydroxymethyl)-N-{1-[3-(trifluoromethyl)benzyl]-1H-imidazol-4-yl}picolinamide]
0.024	O=C(Nc1cn(Cc2cccc(C(F)(F)F)c2)cn1)c1csc(CO)n1 [Example 18]
0.077	O=C(Nc1cn(Cc2cc(F)c(F)c(F)c2)cn1)c1csc(CO)n1 [Example 19]
0.007	O=C(Nc1cn(Cc2cc(F)c(F)c(F)c2)cn1)c1ccc(CO)nc1 [Example 20, 6-(Hydroxymethyl)-N-[1-(3,4,5-trifluorobenzyl)-1H-imidazol-4-yl]nicotinamide]
0.056	O=C(Nc1cn(Cc2cccc(Cl)c2)cn1)c1ccc(CO)nc1 [Example 21]
< 0.01	O=C(Nc1cn(Cc2cccc(C(F)(F)F)c2)cn1)c1ccc(CO)nc1 [Example 22, 6-(hydroxymethyl)-N-{1-[3-(trifluoromethyl)benzyl]-1H-imidazol-4-yl}nicotinamide]
< 0.01	O=C(Nc1cn(Cc2cccc(C(F)(F)F)c2)cn1)c1cnc(CO)c(C(F)F)c1 [Example 23, 5-(difluoromethyl)-6-(hydroxymethyl)-N-{1-[3-(trifluoromethyl)benzyl]-1H-imidazol-4-yl}nicotinamide]
0.07	O=C(Nc1cn(Cc2cccc(C(F)(F)F)c2)cn1)c1cnc(CO)c(C(F)(F)F)c1 [Example 25]
0.053	O=C(Nc1cn(Cc2cccc(C(F)(F)F)c2)cn1)c1cnc(CO)cn1 [Example 26]
0.653	O=C(Nc1cn(Cc2cccc(C(F)(F)F)c2)cn1)c1cc(CO)on1 [Example 27]
< 0.01	O=C(Nc1ccc(CO)nc1)c1cn(Cc2cc(F)c(F)c(F)c2)cn1 [Example 28, N-[6-(Hydroxymethyl)pyridin-3-yl]-1-(3,4,5-trifluorobenzyl)-1H-imidazole-4-carboxamide]
0.079	O=C(Nc1ccc2nc(CO)ccc2c1)c1cn(Cc2cc(F)c(F)c(F)c2)cn1 [Example 29]
0.66	O=C(Nc1ccc2c(c1)CCCN2)c1cn(Cc2cc(F)c(F)c(F)c2)cn1 [Example 33, N-(1,2,3,4-Tetrahydroquinolin-6-yl)-1-(3,4,5-trifluorobenzyl)-1H-imidazole-4-carboxamide dihydrochloride]
< 0.01	Cc1cc(C(=O)Nc2cn(Cc3cc(F)c(F)c(F)c3)cn2)cnc1CO [Example 55, 6-(Hydroxymethyl)-5-methyl-N-[1-(3,4,5-trifluorobenzyl)-1H-imidazol-4-yl]nicotinamide]
0.029	Nc1cc(C(=O)Nc2cn(Cc3cccc(C(F)(F)F)c3)cn2)cnc1CO [Example 58, 5-Amino-6-(hydroxymethyl)-N-{1-[3-(trifluoromethyl)benzyl]-1H-imidazol-4-yl}nicotinamide]
0.01	Nc1cc(C(=O)Nc2cn(Cc3cc(F)c(F)c(F)c3)cn2)cnc1CO [Example 59, 5-amino-6-(hydroxymethyl)-N-[1-(3,4,5-trifluorobenzyl)-1H-imidazol-4-yl]nicotinamide]

same assay, conditions: non-adherent serum-free sphere culture, 4 days, CellTiter-Glo, read-out: IC50 (μmol/L), Sphere IC50 value, concentration for 50% inhibition of cell proliferation

IC50 [µmol/L]	Molecule
0.09	COc1ccc(C(=O)Nc2cn(Cc3ccc(F)cc3F)cn2)cc1OC [Example 12, N-[1-(2,4-difluorobenzyl)-1H-imidazol-4-yl]-3,4-dimethoxybenzamide]

system: H460 cells; experiment: Combination with Example 24, inhibitory effect on sphere-forming ability (Test Example 6); format: cell-based, human; details: H460 sphere culture, test compound combined with Example 24 (2-1000 nmol/L), 4 days
Protocol: After the culture, CellTiterGlo (Promega) was added into all of the wells, and the plate is allowed to stand at room temperature for 10 minutes to measure the intensity of luminescence of each well. […] The formula for calculating the rate is shown below.
Sphere formation rate (%)=(Lsample)/(Lcontrol)×100
The value obtained by dividing the sphere formation rate by 100 and subtracting the calculated value from 1 is defined as a sphere formation inhibitory effect. The formula for calculating the effect is shown below.
Sphere formation inhibitory effect=1−(Sphere formation rate/100)
Also, the measured cell survival rate of the combination was defined as (Ld).
The minimum value thereof (sCI) was used as the criteria for screening.

Molecule	sCI, minimum (Ld)/(Lc)
COc1ccc(-c2ccc3c(N4CCOC[C@@H]4C)nc(N4CCOC[C@@H]4C)nc3n2)cc1CO [AZD8055]	0.651
Cc1c(NC(=O)OC[C@@H]2COCCN2)cn2ncnc(Nc3ccc4c(cnn4Cc4cccc(F)c4)c3)c12 [BMS-599626]	0.081
Cc1c[nH]c(-c2cnc(NCCNc3ccc(C#N)cn3)nc2-c2ccc(Cl)cc2Cl)n1 [CHIR-99021]	0.378
Cc1nc(Nc2ncc(C(=O)Nc3c(C)cccc3Cl)s2)cc(N2CCN(CCO)CC2)n1 [Dasatinib]	0.514
C=C1/C(=C\C=C2/CCC[C@]3(C)[C@@H]([C@H](C)/C=C/[C@H](C)C(C)C)CC[C@@H]23)C[C@@H](O)C[C@@H]1O [Doxercalciferol]	0.304
CCCCCCCCc1ccc(CCC(N)(CO)CO)cc1 [Fingolimod]	0.007
CCc1cc(Nc2nccc(-c3c(-c4ccc(OC)c(C(=O)Nc5c(F)cccc5F)c4)nc4ccccn34)n2)c(OC)cc1N1CCC(N2CCN(S(C)(=O)=O)CC2)CC1 [GSK1904529A]	0.166
Cc1cc2c(C(C)C)c(O)c(O)c(C=O)c2c(O)c1-c1c(C)cc2c(C(C)C)c(O)c(O)c(C=O)c2c1O [Gossypol]	0.026
Cn1cc(-c2ccc3nnc(C(F)(F)c4ccc5ncccc5c4)n3n2)cn1 [JNJ-38877605]	0.711
CC(C)(C)Cn1c(N)nc2ccc(-c3[nH]c(C(C)(C)C)nc3-c3ccc(F)cc3)nc21 [LY2228820]	0.020
CS(=O)(=O)CCNCc1ccc(-c2ccc3ncnc(Nc4ccc(OCc5cccc(F)c5)c(Cl)c4)c3c2)o1 [Lapatinib]	0.076
Cc1ccc(F)c(NC(=O)Nc2ccc(-c3cccc4[nH]nc(N)c34)cc2)c1 [Linifanib]	0.142
Cc1ccc(NC(=O)c2ccc(CN3CCN(C)CC3)cc2)cc1Nc1nc(-c2cccnc2)cs1 [Masitinib]	0.010
COC1=CC(c2cc3ccccc3[nH]2)=N/C1=C\c1[nH]c(C)cc1C [Obatoclax]	0.061
COc1ccc(COc2cc3oc(=O)c4cc(C(C)O)ccc4c3cc2OC)cc1 (centres unmarked) [Palomid 529]	0.428
Cc1ccc(Nc2nccc(N(C)c3ccc4c(C)n(C)nc4c3)n2)cc1S(N)(=O)=O [Pazopanib]	0.507
Cc1cccc(Nc2nc(-c3ccncc3)cs2)c1 [STF-62247]	0.221
CN1CCN(c2nc(C3=C(c4c[nH]c5ccccc45)C(=O)NC3=O)c3ccccc3n2)CC1 [Sotrastaurin]	0.030
C=CCNC1=C2C[C@@H](C)C[C@H](OC)[C@H](O)[C@@H](C)/C=C(\C)[C@H](OC(N)=O)[C@@H](OC)/C=C\C=C(/C)C(=O)NC(=CC1=O)C2=O [Tanespimycin]	0.386
COc1ccc2cc(-c3nc(-c4ccc([S+](C)[O-])cc4)[nH]c3-c3ccncc3)ccc2c1 (centres unmarked) [Tie2 kinase inhibitor]	0.123
Cn1cncc1[C@@](N)(c1ccc(Cl)cc1)c1ccc2c(c1)c(-c1cccc(Cl)c1)cc(=O)n2C [Tipifarnib]	0.564
O=C(CCCCCCC(=O)Nc1ccccc1)NO [Vorinostat]	0.573
